Test results reported in US20180050114A1, “HER2 APTAMER-ANTICANCER DRUG COMPLEX FOR CANCER CELL CHEMOTHERAPY” (priority 2016, published 2018).
{SH} = thiol (OH replaced by SH), used for disulfide linkage to DM1

Experiments:
[1] = target: T1, HER2 (Homo sapiens, UniProt P04626); experiment: Confocal ICC of HER2 localisation / cellular internalization in BT474 cells; type: cell-based; details: BT474 cell line, 10 nM, 48 hr, confocal microscope (FIGS. 2A to 2L)
T1 construct: endogenous in cells; host or cells: BT474 breast cancer cells
Method: (2) The cells cultured on 8-well chamber slides were fixed with 4% paraformaldehyde, washed with PBS, and cultured for 10 min with 0.2% Triton X-100. Thereafter, the cells were cultured overnight at 4° C. with primary antibodies in an antibody dilution buffer and then cultured at room temperature for 2 hr with fluorescence-conjugated secondary antibodies. Thereafter, the cells were mounted on ProLong Gold Antifade Reagent containing DAPI (4′,6′-diamidine-2′-phenylindole dihydrochloride). Particularly, each of the cultured breast cancer cell lines was subjected to immunocytochemistry (ICC) using a HER2 antibody, the nucleus thereof was stained with DAPI, and HER2 (red) and nucleus (blue) regions were imaged using a confocal microscope.
(1) ICC was performed using the HER2 antibody.

[2] = system: HER2-positive breast cancer BT474 cell line and HER2-negative breast cancer T47D cell line, co-cultured 1:1; experiment: p-His3 (mitotic arrest marker) ICC in co-cultured HER2-positive and HER2-negative cells; type: cell-based; details: for expression of p-His3 depending on HER2 expression (confocal images): BT474/T47D co-culture 1:1, 10 nM, 24 hr (FIG. 3)
Method: (2) HER2 and a mitotic arrest marker, namely phospho-Histone H3 (p-His3), were stained with ICC, and the HER2-positive breast cancer BT474 cell line and the HER2-negative breast cancer T47D cell line, the nuclei of which were stained with DAPI, were co-cultured at a ratio of 1:1 and treated with a control (DMSO), DM1, and Aptamer-DM1 at a concentration of 10 nM for 24 hr. Thereafter, the nuclei (blue), p-His3 (green), and HER2 (red) were imaged using a confocal microscope. The number of cells in which p-His3 was detected was quantified based on whether HER2 was expressed or not.

[3] = system: HER2-positive breast cancer cell lines (SKBR3, BT474, MDA-MB-453); experiment: Apoptosis rate (sub-G1%) by PI DNA content flow cytometry, HER2-positive cell lines; type: cell-based; details: 10 nM, 72 hr (FIG. 5); for apoptosis rate (sub-G1%): HER2-positive cell lines SKBR3, BT474, MDA-MB-453
Method: (§1) Thereafter, the apoptosis rate (sub-G1%) of cancer cells was measured through DNA content analysis using flow cytometry.
(§2) (2) Typically, the cell cycle includes, depending on the amount of DNA in cells, G1 (cell growth phase)-S (cell replication phase)-G2/M (cell mitotic phase). […] The results of apoptosis are represented by the percentage of sub-G1 in the cell cycle.

[4] = system: HER2-negative breast cancer cell lines (MCF7, T47D); experiment: Apoptosis rate (sub-G1%) by PI DNA content flow cytometry, HER2-negative cell lines; type: cell-based; details: 10 nM, 72 hr (FIG. 5)
Method: as §1, §2

[5] = system: HER2-positive BT474 tumors (compared with HER2-negative T47D tumors); experiment: Breast cancer animal model, tumor volume and TUNEL assay; type: in vivo, BALB/c nude mice; details: 1 mg/kg, 2 mg/kg intraperitoneally three times a week
Method: (1) To the fourth breast fat pads of immunodeficient 6-week-old female BALB/c nude mice, HER2-positive BT474 cancer cells (3×10^6 cells) and HER2-negative T47D cancer cells (3×10^6 cells) were transplanted, after which Aptamer-DM1 (1 mg/kg, 2 mg/kg, body weight) was intraperitoneally administered three times a week. Then, the tumor volume was measured for 18 days. The tumor volume (V) was measured using a caliper and calculated according to V=(length×width^2)/2. In the TUNEL assay, the tumors were removed from the mice, fixed with 10% neutral-buffered formalin and embedded in paraffin. The 4 μm thick tissue section was mounted on a positively charged glass slide, deparaffinized with xylene, and […] through a graded alcohol series. After antigen retrieval, the above tissue section was boiled in a citric acid buffer (pH 6.0) and immunofluorescence was performed. In situ TUNEL was performed on the above tissue section using a TUNEL kit (Roche Applied Sciences, Penzberg, GER), and the images thereof were obtained using a confocal scanning microscope.

[6] = system: Trastuzumab-resistant BT474 cell line (BT474-Tra); experiment: Western blot of HER family / AKT signalling in Trastuzumab-resistant BT474 cells; type: cell-based; details: 10 nM
Method: For the BT474 and BT474-Tra cell lines, the expression of p185HER2, p95HER2, p-HER2, p-p95HER2, HERS, p-HER3, total-AKT, p-AKT, and PARP was analyzed via Western blot. Cell viability was measured using a CellTiter 96* Aqueous One Solution Cell Proliferation Assay [MTS, 3-(4,5-dimethylthiazol-2-yl)-5-(3-carboxymethoxyphenyl)-2-(4-sulfophenyl)-2H-tetrazolium], and the amount of produced formazan was determined by measuring absorbance at 490 nm using a Spectramax Plus 384 microplate analyzer. In the Western blot, the above cells were lysed in a lysis buffer (30 mM NaCl, 0.5% Triton X-100, 50 mM Tris-HCl; pH 7.4) containing phosphatase and a protease inhibitor, and the supernatant was collected and then the protein was […] using a Bradford protein assay kit. 30 μg of the protein was subjected to SDS-PAGE and electrophoresed with a nitrocellulose membrane. The membrane was cultured overnight at 4° C. with primary antibodies diluted in bovine serum albumin (BSA) and then cultured with horseradish peroxidase (HRP)-conjugated rabbit IgG (1:3000-1:10,000). Signal intensity was measured using an Enhanced Chemiluminescence Kit and an X-ray film, and quantified with AlphaEaseFC software.

[7] = system: JIMT-1 cell line; experiment: Western blot of HER family / AKT signalling in JIMT-1 cells; type: cell-based; details: JIMT-1, 10 nM, 72 hr, compared to control, DM1 and Aptamer (FIG. 10)
[8] = system: BT474-Tra cells; experiment: Drug-resistant disease animal model, BT474-Tra tumors; type: in vivo, BALB/c nude mice; details: BT474-Tra transplanted mice, 1 mg/kg intraperitoneally, 15 days (FIG. 11)
Method: (§3) Thereafter, the tumor volume was measured for 15 days. The results are shown in FIG. 11, and the results of in-vivo bioluminescence imaging of JIMT-1-transplanted mice are shown in FIG. 12. In-vivo bioluminescence imaging was performed in a manner in which the mice were anesthetized and administered with 150 mg/kg of luciferin, after which the tumor size and the transition state were measured using a bioluminescence imaging system.

[9] = system: JIMT-1 cells; experiment: Drug-resistant disease animal model, JIMT-1 tumors (tumor volume, bioluminescence imaging); type: in vivo, BALB/c nude mice
Method: as §3

[10] = BT474/T47D co-culture, 10 nM, 24 hr (FIG. 4)

Compound	HER2 localisation (cell membrane expression vs cellular internalization) [1]	expression of p-His3 depending on HER2 expression (confocal images) [2]	proportions of cells in which p-His3 was detected, HER2-positive cell line versus HER2-negative cell line [2, 10]	apoptosis rate (sub-G1%) [3]	apoptosis rate (sub-G1%) [4]	proportion of cells in which p-His3 was detected, HER2-negative cell line [2, 10]	proportion of cells in which p-His3 was detected, HER2-positive cell line [2, 10]	apoptosis rate compared to the DM1-treated group ([3]; HER2-positive cell lines)	tumor growth (tumor volume) ([5]; 18 days, BT474 and T47D transplanted tumors (FIG. 6))	apoptosis in tumors (TUNEL assay) ([5]; BT474 and T47D tumors (FIG. 7))	expression of p95HER2 ([6]; BT474-Tra cells, 72 hr (FIG. 10))	expression of full-length p185HER2, phospho-HER2 (Tyr1221), HER3, phospho-HER3, AKT and phospho-Akt (Ser 43) ([6]; BT474-Tra, 72 hr, compared to control, DM1 and Aptamer (FIG. 10))	expression of full-length p185HER2, phospho-HER2 (Tyr1221), HER3, phospho-HER3, AKT and phospho-Akt (Ser 43) [7]	tumor volume [8]	luciferin intensity (in-vivo bioluminescence imaging) ([9]; JIMT-1-transplanted mice, 1 mg/kg intraperitoneally (FIG. 12))	tumor volume ([9]; JIMT-1 transplanted mice, 1 mg/kg intraperitoneally, 15 days (FIG. 11))
COc1cc2cc(c1Cl)N(C)C(=O)C[C@H](OC(=O)[C@H](C)N(C)C(C)=O)[C@]1(C)O[C@H]1[C@H](C)[C@@H]1C[C@@](O)(NC(=O)O1)[C@H](OC)/C=C/C=C(\C)C2 [DM1, maytansine, reference compound]	expression of HER2 on the cell membrane was observed	found regardless of whether HER2 was expressed or not	not significantly different	relatively high apoptosis rate	relatively high apoptosis rate											
Aptamer-DM1: HER2-binding RNA aptamer (SEQ ID NO:1, 3′ thiol, 2′-O-methyl) linked via disulfide bonding to anticancer drug DM1 (GGGAGGACGAUGCGGGACUGUACGGGGCUCUGUGCAGACGACUCGCCCGA; 3' {SH}, sugars by position and backbone not given here; 2'-O-methyl modified, 3' thiol disulfide-linked to DM1)	cellular internalization of HER2 from the cell membrane was observed	detected only in the cells in which HER2 was expressed		high	low	considerably decreased	remarkably increased	high apoptosis rate in the HER2-positive cell lines compared to the DM1-treated group	significantly decreased only the growth of HER2-positive BT474 tumors	effectively induced apoptosis only in the HER2-positive BT474 tumors	strongly inhibited	significantly reduced	significantly reduced	significantly reduced the tumor volume	remarkably decreased	significantly reduced the tumor volume
